Measured values from ChEMBL document CHEMBL2176966, “Discovery of 6,7-dihydro-5H-pyrrolo[2,3-a]pyrimidines as orally available G protein-coupled receptor 119 agonists” (J Med Chem, 2012).
Activity calls are given as the source filed them. No cut-off for these calls is given here.

Tested on: Rattus norvegicus
Experiment: Dose normalized AUC (0 to 24 hrs) in rat at 30 mg/kg
Assay type: ADME, organism-based
Design: dose 30 mg/kg
Details: in vivo

AUC/dose [µg·h/mL] | SMILES
> 1 | CC(C)OC(=O)N1CCC(Oc2ncnc3c2CCN3c2ccc(C#N)cc2F)CC1

Target: T1, Glucose-dependent insulinotropic receptor (Homo sapiens, UniProt Q8TDV5)
T1 sequence (Q8TDV5 whole entry): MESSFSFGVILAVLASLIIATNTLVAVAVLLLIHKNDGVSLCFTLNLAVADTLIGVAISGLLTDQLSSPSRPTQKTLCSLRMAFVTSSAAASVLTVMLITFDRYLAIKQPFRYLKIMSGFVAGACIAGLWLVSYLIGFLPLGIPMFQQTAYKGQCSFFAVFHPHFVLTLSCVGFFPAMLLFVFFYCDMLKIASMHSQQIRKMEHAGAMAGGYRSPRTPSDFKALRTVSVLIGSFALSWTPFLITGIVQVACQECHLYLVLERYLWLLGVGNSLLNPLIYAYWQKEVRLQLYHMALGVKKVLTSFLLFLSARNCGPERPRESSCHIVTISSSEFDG
Experiment: Agonist activity at human GPR119 receptor expressed in CHO-K1 cells co-expressing 6CRE-luciferase gene after 5 hrs by luciferase reporter gene assay
Assay type: functional, cell-based
Details: cho-k1

pEC50 | SMILES
< 5 | CC(C)OC(=O)N1CCC(Oc2ncnc3c2CC(C)N3c2ccc(S(C)(=O)=O)cc2F)CC1 (single isomer, unassigned; (+))

Same assay, conditions: read-out: EC50

EC50 [nM] | SMILES
200 | O=[N+]([O-])c1c(Nc2ccc(-n3cncn3)cc2)ncnc1N1CCC(Sc2ccccn2)CC1

Same assay, conditions: read-out: pEC50 (converted)

EC50 [nM] | SMILES
251 | CSC(=O)N1CCC(Oc2ncnc3c2CCN3c2ccc(S(C)(=O)=O)cc2F)CC1
20 | CC(C)(C)OC(=O)N1CCC(Oc2ncnc3c2CCN3c2ccc(S(C)(=O)=O)cc2F)CC1
251 | CCOC(=O)N1CCC(Oc2ncnc3c2CCN3c2ccc(S(C)(=O)=O)cc2F)CC1
10 | CC(C)SC(=O)N1CCC(Oc2ncnc3c2CCN3c2ccc(S(C)(=O)=O)cc2F)CC1
1580 | CCS(=O)(=O)N1CCC(Oc2ncnc3c2CCN3c2ccc(S(C)(=O)=O)cc2F)CC1
316 | COCCOC(=O)N1CCC(Oc2ncnc3c2CCN3c2ccc(S(C)(=O)=O)cc2F)CC1
1260 | CC(C)S(=O)(=O)N1CCC(Oc2ncnc3c2CCN3c2ccc(S(C)(=O)=O)cc2F)CC1
31.6 | CCSC(=O)N1CCC(Oc2ncnc3c2CCN3c2ccc(S(C)(=O)=O)cc2F)CC1
79.4 | CCCOC(=O)N1CCC(Oc2ncnc3c2CCN3c2ccc(S(C)(=O)=O)cc2F)CC1
39.8 | CC(C)(C)COC(=O)N1CCC(Oc2ncnc3c2CCN3c2ccc(S(C)(=O)=O)cc2F)CC1
398 | CN(C)S(=O)(=O)N1CCC(Oc2ncnc3c2CCN3c2ccc(S(C)(=O)=O)cc2F)CC1
316 | COC(=O)N1CCC(Oc2ncnc3c2CCN3c2ccc(S(C)(=O)=O)cc2F)CC1
25.1 | CC(C)COC(=O)N1CCC(Oc2ncnc3c2CCN3c2ccc(S(C)(=O)=O)cc2F)CC1
79.4 | CC(C)c1noc(N2CCC(Oc3ncnc4c3CCN4c3ccc(S(C)(=O)=O)cc3F)CC2)n1
> 10000 | CCN(CC)C(=O)CN1CCC(Oc2ncnc3c2CCN3c2ccc(S(C)(=O)=O)cc2F)CC1
100 | Cc1cc(S(C)(=O)=O)ccc1N1CCc2c(OC3CCN(C(=O)OC(C)C)CC3)ncnc21
2000 | CS(=O)(=O)c1ccc(N2CCc3c(OC4CCN(C5=NCCCN5)CC4)ncnc32)c(F)c1
501 | CS(=O)(=O)c1ccc(N2CCc3c(OC4CCN(C(=O)OCCF)CC4)ncnc32)c(F)c1
50.1 | CCCCOC(=O)N1CCC(Oc2ncnc3c2CCN3c2ccc(S(C)(=O)=O)cc2F)CC1

More lines, now with the values behind:

SMILES | EC50 [nM]
CC(C)OC(=O)N1CCC(Oc2cccc3c2CCN3c2ccc(S(C)(=O)=O)cc2F)CC1 | 1000
CC(C)OC(=O)N1CCC(Oc2ncnc3c2CCN3c2ccc(C#N)c(F)c2)CC1 | 398
CC(C)OC(=O)N1CCC(Nc2ncnc3c2CCN3c2ccc(S(C)(=O)=O)cc2F)CC1 | 2000
CC(C)OC(=O)N1CCC(Oc2ncnc3c2CCN3c2ccc(S(C)(=O)=O)nc2)CC1 | 251
CC(C)OC(=O)N1CCC(S(=O)(=O)c2ncnc3c2CCN3c2ccc(S(C)(=O)=O)cc2F)CC1 | > 10000
CS(=O)(=O)c1ccc(N2CCc3c(OC4CCN(C(=S)Sc5ccccc5)CC4)ncnc32)c(F)c1 | 12.6
CC(C)OC(=O)N1CCC(Oc2ncnc3c2CC(C)N3c2ccc(S(C)(=O)=O)cc2F)CC1 (single isomer, unassigned; (-)) | > 10000
Cc1nc(OC2CCN(C(=O)OC(C)(C)C)CC2)c2c(n1)N(c1ccc(S(C)(=O)=O)cc1F)CC2 | 126
CC(C)OC(=O)N1CCC(Oc2ncnc3c2CCN3c2ccc(S(C)(=O)=O)cc2)CC1 | 126
CC(C)OC(=O)N1CCC(Oc2nc(N)nc3c2CCN3c2ccc(S(C)(=O)=O)cc2F)CC1 | 794
Cc1nc(OC2CCN(c3nc(C(C)C)no3)CC2)c2c(n1)N(c1ccc(S(C)(=O)=O)cc1F)CC2 | 251
CC(C)OC(=O)N1CCC(Oc2ncnc3c2CCN3c2ccc(-c3nccs3)cc2F)CC1 | 79.4
CC(C)OC(=O)N1CCC(Oc2ncnc3c2CCN3c2ccc([S@@+](C)[O-])cc2F)CC1 | 631
CC(C)OC(=O)N1CCC(Oc2ncnc3c2CCN3c2ccc(S(C)(=O)=O)cn2)CC1 | 126
Cc1ncccc1N1CCc2c(OC3CCN(C(=O)OC(C)C)CC3)ncnc21 | > 10000
CC(C)OC(=O)N1CCC(N(C)c2ncnc3c2CCN3c2ccc(S(C)(=O)=O)cc2F)CC1 | 631

SMILES | EC50 [nM]
CSc1ccc(N2CCc3c(OC4CCN(C(=O)OC(C)C)CC4)ncnc32)c(F)c1 | 398
CC(C)c1noc(N2CCC(O)CC2)n1 | 50.1
CC(C)(C)OC(=O)N1CCC(Oc2cccc3c2CCN3c2ccc(S(C)(=O)=O)cc2)CC1 | 158
CNc1nc(OC2CCN(C(=O)OC(C)C)CC2)c2c(n1)N(c1ccc(S(C)(=O)=O)cc1F)CC2 | > 10000
CC(C)OC(=O)N1CCC(Oc2ncnc3c2CCN3c2ccc([S@+](C)[O-])cc2F)CC1 | 50.1
CC(C)OC(=O)N1CCC(Oc2ncnc3c2CCN3c2ccc(S(C)(=O)=O)c(F)c2)CC1 | 158
CC(C)OC(=O)N1CCC(Oc2ncnc3c2CCN3c2ccc(C#N)cc2F)CC1 | 63.1
Cc1nc(OC2CCN(C(=O)OC(C)C)CC2)c2c(n1)N(c1ccc(S(C)(=O)=O)cc1F)CC2 | 100
N#CN1CCC(O)CC1 | 316
CC(C)(C)OC(=O)N1CCC(Oc2cccc3c2ccn3-c2ccc(S(C)(=O)=O)cc2)CC1 | 631
CC(C)OC(=O)N1CCC(Oc2cccc3c2CCN3c2ccc(S(C)(=O)=O)cc2)CC1 | 501
CC(C)OC(=O)N1CCC(Oc2ncnc3c2CCN3c2ccc(-c3cccn3C)cc2F)CC1 | 158
CC(C)OC(=O)N1CCC(Oc2ncnc3c2CCN3c2ccc(C#N)cn2)CC1 | 794
CC(C)OC(=O)N1CCC(Sc2ncnc3c2CCN3c2ccc(S(C)(=O)=O)cc2F)CC1 | 79.4
CC(C)OC(=O)N1CCC(Oc2ncnc3c2CCN3c2ccc(S(=O)(=O)N(C)C)cc2)CC1 | 501
CC(C)OC(=O)N1CCC(Oc2ncnc3c2CCN3c2ccc(F)cn2)CC1 | > 10000

Tested on: Rattus norvegicus
Experiment: Antihyperglycemic activity in Wistar rat assessed as glucose excursion curve at 10 mg/kg, po by glucose tolerance test
Assay type: functional
Details: not given

SMILES | Activity
N#C[C@@H]1CCCN1C(=O)CNC12CC3CC(CC(O)(C3)C1)C2 | Active

Tested on: not listed separately
Experiment: AUC (0 to 24 hrs) in rat at 10 mg/kg
Assay type: ADME, organism-based
Design: time < 24 hr, dose 10 mg/kg
Details: plasma

AUC(0-t) at 24 h [ng·h/mL] | SMILES
500 | CC(C)c1noc(N2CCC(Oc3ncnc4c3CCN4c3ccc(S(C)(=O)=O)cc3F)CC2)n1

Tested on: Mus musculus
Experiment: Dose normalized AUC (0 to 24 hrs) in mouse at 30 mg/kg
Assay type: ADME, organism-based
Design: dose 30 mg/kg
Details: in vivo

AUC/dose [µg·h/mL] | SMILES
0.04 | CCc1cnc(N2CCC(Oc3ncnc4c3CCN4c3ccc(S(C)(=O)=O)cc3F)CC2)nc1
